# Like-named read-outs stand apart in the source and are kept apart here.
# Legend:
# vitamin D receptor (VDR) = biological target: T1, vitamin D receptor (VDR) (Homo sapiens, UniProt P11473); assay: Vitamin D-dependent transcriptional activation: growth hormone production in COS-1 cells co-transfected with VDR plasmid and VDRE-GH plasmid; type: cell-based; details: for Total GH Production: averages of duplicate determinations
# T1 sequence (P11473 1-427): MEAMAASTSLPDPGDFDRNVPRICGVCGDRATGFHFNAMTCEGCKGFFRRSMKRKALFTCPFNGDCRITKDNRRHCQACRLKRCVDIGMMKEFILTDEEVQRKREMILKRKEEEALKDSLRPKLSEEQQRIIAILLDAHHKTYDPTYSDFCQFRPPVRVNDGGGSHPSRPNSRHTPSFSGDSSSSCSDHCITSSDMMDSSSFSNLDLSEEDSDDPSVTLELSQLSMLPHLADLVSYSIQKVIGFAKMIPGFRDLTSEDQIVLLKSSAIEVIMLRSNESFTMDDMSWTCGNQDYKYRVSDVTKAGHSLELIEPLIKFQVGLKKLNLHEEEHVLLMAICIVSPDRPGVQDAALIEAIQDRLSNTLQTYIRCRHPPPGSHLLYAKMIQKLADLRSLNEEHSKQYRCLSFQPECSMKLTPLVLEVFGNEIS
# Experimental: The biological activity in vitro of chemically synthesized 1α,24(S)-(OH)2 D2 and 1α,24(R)-(OH)2 D2 was measured using a vitamin D-dependent transcriptional activation model system in which a vitamin D receptor (VDR)-expressing plasmid pSG5-hVDR1/3and a plasmid p(CT4)^4 TKGH containing a Growth Hormone (GH)-gene, under the control of a vitamin D-responsive element (VDRE) were co-transfected into Green monkey kidney, COS-1 cells. DNA's for these two vectors were supplied by Dr. Mark Haussler, Department of Biochemistry, University of Arizona, Tucson, Ariz.
# Tranfected cells were incubated with vitamin D metabolites and growth hormone production was measured.
# [1] = test system: 1,25-(OH)2 D3 receptor site; details: Ishizuka et al., Steroids 1981, 1982; cited from earlier work
# Hep 3B cells = assay: Metabolite production in Hep 3B cells incubated with 1α-OH-D2; type: in vitro ADME, human; details: Experiment 2; substrate 1α-OH-D2 10 μM; photodiode array spectrophotometry
# Experimental: Substantially pure 1α-(OH)D2 was obtained from Bone Care International, Inc. of Madison, Wis. The 1α-(OH)D2 was cultured for 48 hours with cells derived from a human hepatoma, Hep 3B, in medium devoid of fetal calf serum using known methods in the art.
# Lipid extracts of the combined medium and cells were generated by known methods in the art and were subjected to high pressure liquid chromatography (HPLC) on Zorbax-S1L developed with hexane/isopropanol/methanol (91:7:2). The putative 1α,24(?)-(OH)2 D2 metabolite eluted between the parent 1α-(OH)D2 and standard 1α,25-(OH)2 D2 (also obtained from Bone Care International, Inc. of Madison, Wis.). (As used herein, the term "1α,24(?)-(OH)2 D2 " is meant to indicate that the epimeric form has not been identified.) The 1α,24(?)-(OH)2 D2 was further purified by this HPLC system before the metabolite's identification was undertaken using mass spectrometry analysis.
# Hep 3B cells were incubated with 1α-OH-D2, as described above, at final concentrations of 1, 10, or 100 nM (Experiment 1), and 1 or 10 μM (Experiment 2) and 1α,24(S)-(OH)2 D2 was extracted and purified. The 1α,24(S)-(OH)2 D2 and 1α,25-(OH)2 D2 metabolites were quantitated by recovered radiolabel (Experiment 1) or by photodiode array spectrophotometry (Experiment 2).
# [2] = test system: human osteoporotic patients; details: dosages of 2.0 μg/day or higher; cited from earlier work
# [3] = type: in vivo, rat
# Experimental: Vitamin D2 or 24-OH-D2 was administered (either oral or intraperitoneal supplementation) to vitamin D-deficient rats. Lipid extracts of the plasma were prepared and the metabolites purified by the method of Horst et al. (Horst, R. L., Koszewski, N. J. and Reinhardt, T. A., Biochem., 29:578-82 (1990)) described below for synthesyzing standard biological 1α,24-(OH)2 D2.
# Standard biological 1α,24-(OH)2 D2 was synthesized in vitro from 24-OH-D2 by incubating 10 μg of 24-OH-D2 in flask containing 5 ml of 20% kidney homogenates made from vitamin D-deficient chicks. The product of this reaction was isolated by HPLC and identified by mass spectrometry.
# [4] = oral or intraperitoneal supplementation, vitamin D-deficient rats, HPLC
structure (smiles),measurement,setting,value
"C=C1/C(=C\C=C2/CCC[C@]3(C)[C@@H]([C@H](C)/C=C/[C@](C)(O)C(C)C)CC[C@@H]23)C[C@@H](O)C[C@@H]1O [1α,24(R)-(OH)2 D2, 1α,24(R)-dihydroxy vitamin D2]",Total GH Production,vitamin D receptor (VDR); inducer 10^-7 molar,1300 ng/mL
same,Total GH Production,vitamin D receptor (VDR); inducer 10^-8 molar,1100 ng/mL
same,Net vitamin D-inducible GH-production,vitamin D receptor (VDR); inducer 10^-9 molar,36 ng/mL
same,Total GH Production,vitamin D receptor (VDR); inducer 10^-9 molar,80 ng/mL
"C=C1/C(=C\C=C2/CCC[C@]3(C)[C@@H]([C@H](C)CC[C@@H](O)C(C)C)CC[C@@H]23)C[C@@H](O)C[C@@H]1O [1α,24(R)-(OH)2 D3, 1α,24(R)-dihydroxyvitamin D3]","binding to the 1,25-(OH)2 D3 receptor site compared with 1,25-(OH)2 D3",[1],"more tightly than does 1,25-(OH)2 D3 itself"
"C=C1/C(=C\C=C2/CCC[C@]3(C)[C@@H]([C@H](C)/C=C/[C@H](C)C(C)(C)O)CC[C@@H]23)C[C@@H](O)C[C@@H]1O [1α,25-(OH)2 D2, 1α,25-dihydroxy vitamin D2, reference compound]",Rate of Production,Hep 3B cells,7.4 pmol per 10^6 cells/day
"C=C1/C(=C\C=C2/CCC[C@]3(C)[C@@H]([C@H](C)/C=C/[C@H](C)C(C)C)CC[C@@H]23)C[C@@H](O)C[C@@H]1O [1α-(OH)D2, 1α-hydroxy vitamin D2]",loss of bone mass,[2],will reverse the loss of bone mass
"C=C1CC[C@H](O)C/C1=C/C=C1\CCC[C@]2(C)[C@@H]([C@H](C)/C=C/C(C)(O)C(C)C)CC[C@@H]12 (some centres unmarked) [24-OH-D2, 24-hydroxyvitamin D2]",metabolite found in lipid extracts of plasma,"[3]; rat, in vivo","one metabolite isolated co-migrated on HPLC with the standard 1α,24-(OH)2 D2"
"C=C1CC[C@H](O)C/C1=C/C=C1\CCC[C@]2(C)[C@@H]([C@H](C)CCCC(C)(C)O)CC[C@@H]12 [25-OH-D3, 25-hydroxy vitamin D3, reference compound]",Total GH Production,vitamin D receptor (VDR); inducer 10^-6 molar,1100 ng/mL
"C=C1CC[C@H](O)C/C1=C/C=C1\CCC[C@]2(C)[C@@H]([C@H](C)/C=C/[C@H](C)C(C)C)CC[C@@H]12 [vitamin D2, Vitamin D2]",metabolite found in lipid extracts of plasma,[3]; [4],"one metabolite isolated co-migrated on HPLC with the standard 1α,24-(OH)2 D2"
C=C1CC[C@H](O)C/C1=C/C=C1\CCC[C@]2(C)[C@@H]([C@H](C)CCCC(C)C)CC[C@@H]12 [vitamin D3],metabolite found in lipid extracts of plasma,[3]; [4],no detectable 24-OH-D3
